Assay results as given in a compilation of properties of binary mixtures (doi:10.1524/zpch.2013.0328).

Experiment: xn = mol fraction of the nth substance listed
Conditions: 100 kPa

CCCCCCCCCCCCCC[P+](CCCC)(CCCC)CCCC.CCCCCCCCCCCCc1ccc(S(=O)(=O)[O-])cc1 + O
viscosity [mPa·s]
Conditions	298.15 K	303.15 K	313.15 K	323.15 K	333.15 K	343.15 K	353.15 K
x1 = 0.3452	506	365	197	–	74	54	40
x1 = 0.892	–	–	1477	750	409	238	–

CCCCCCCC[N+](C)(CCCCCCCC)CCCCCCCC.O=S(=O)([N-]S(=O)(=O)C(F)(F)F)C(F)(F)F + O
x1 = 0.8467
Conditions	viscosity [mPa·s]
298.15 K	601
303.15 K	426
323.15 K	144
333.15 K	92
353.15 K	46

CC(CC(C)(C)C)CP(=O)([O-])CC(C)CC(C)(C)C.CCCCCCCCCCCCCC[P+](CCCCCC)(CCCCCC)CCCCCC + O
viscosity [mPa·s]
Conditions	298.15 K	303.15 K	313.15 K	323.15 K	333.15 K	343.15 K	353.15 K
x1 = 0.1299	–	105	65	42	29	22	16
x1 = 0.7942	1004	757	439	–	170	111	78

CC(C)C[P+](C)(CC(C)C)CC(C)C.Cc1ccc(S(=O)(=O)[O-])cc1 + O
viscosity [mPa·s]
Conditions	301.15 K	313.15 K	323.15 K	333.15 K	343.15 K	353.15 K
x1 = 0.4387	264	131	–	47	–	24
x1 = 0.9022	–	887	423	–	126	–

CCCCCCCCCCCCCC[P+](CCCCCC)(CCCCCC)CCCCCC.N#C[N-]C#N + O
viscosity [mPa·s]
Conditions	303.15 K	313.15 K	323.15 K	333.15 K	343.15 K	353.15 K
x1 = 0.551	138	86	53	40	28	22
x1 = 0.8444	–	196	123	82	56	41

CC[n+]1ccn(C)c1.O=S(=O)([N-]S(=O)(=O)C(F)(F)F)C(F)(F)F + O
x2 = 0.0086
Conditions	viscosity [mPa·s]
299.15 K	33
303.15 K	28
313.15 K	22
323.15 K	18
333.15 K	14
343.15 K	12
